Results published in ChEMBL document CHEMBL1255495, “Experimental conditions that enhance potency of an antibacterial oligo-acyl-lysyl” (2010).
Values after ≈ are worked out from the molar mass of the structure shown. Active and inactive are the calls of the source. The rule behind the calls is not given here.

Experiments:
[1] = tested on: Listeria monocytogenes; test: Antibacterial activity against Listeria monocytogenes ATCC 19115 after 24 hrs by microdilution method in presence of 515 mM NaCl; assay type: functional; details: ATCC 19115, 24 h
[2] = tested on: Staphylococcus aureus; test: Antibacterial against methicillin-resistant Staphylococcus aureus isolate 15903 at pH 8.5 after 24 hrs at 48 degC by microdilution method in presence of 85 mM NaCl; assay type: functional; details: isolate 15903, 24 h
[3] = tested on: Lipid bilayer; test: Binding affinity to phospholipid membrane model at pH 7 by surface plasmon resonance in presence of 140 mM NaCl
[4] = tested on: Listeria monocytogenes; test: Antibacterial activity against Listeria monocytogenes ATCC 19115 after 24 hrs by microdilution method in presence of 260 mM NaCl; assay type: functional; details: ATCC 19115, 24 h
[5] = tested on: Listeria monocytogenes; test: Antibacterial activity against Listeria monocytogenes ATCC 19115 after 24 hrs by microdilution method in presence of 40 mM MgCl2; assay type: functional; details: ATCC 19115, 24 h
[6] = tested on: Escherichia coli; test: Antibacterial activity against Escherichia coli O157:H7 ATCC 43894 assessed as reduction in bacterial population at 0.01 to 10 uM up to 15 mins by time-kill assay; assay type: functional
[7] = tested on: Staphylococcus aureus; test: Antibacterial activity against methicillin-resistant Staphylococcus aureus isolate 15903 after 24 hrs by microdilution method in presence of 85 mM NaCl; assay type: functional; details: isolate 15903, 24 h
[8] = tested on: Escherichia coli; test: Antibacterial against Escherichia coli O157:H7 ATCC 43894 at pH 8.5 after 24 hrs at 48 degC by microdilution method in presence of 85 mM NaCl; assay type: functional; details: O157:H7 ATCC 43894, 24 h
[9] = tested on: Escherichia coli; test: Antibacterial activity against Escherichia coli O157:H7 ATCC 43894 at pH 5.5 after 24 hrs by microdilution method; assay type: functional; details: O157:H7 ATCC 43894, 24 h
[10] = tested on: Listeria monocytogenes; test: Antibacterial activity against Listeria monocytogenes ATCC 19115 after 24 hrs at 37 degC by microdilution method; assay type: functional; details: ATCC 19115, 24 h
[11] = tested on: Escherichia coli; test: Antibacterial activity against Escherichia coli O157:H7 ATCC 43894 after 24 hrs by microdilution method in presence of 260 mM NaCl; assay type: functional; details: O157:H7 ATCC 43894, 24 h
[12] = tested on: Listeria monocytogenes; test: Antibacterial activity against Listeria monocytogenes ATCC 19115 after 72 hrs at 4 degC by microdilution method; assay type: functional; details: ATCC 19115, 72 h
[13] = tested on: Escherichia coli; test: Antibacterial activity against Escherichia coli O157:H7 ATCC 43894 after 24 hrs by microdilution method in presence of 85 mM NaCl; assay type: functional; details: O157:H7 ATCC 43894, 24 h
[14] = tested on: Staphylococcus aureus; test: Antibacterial activity against Staphylococcus aureus ATCC 25923 at pH 7 after 24 hrs by microdilution method; assay type: functional; details: ATCC 25923, 24 h
[15] = tested on: Escherichia coli; test: Antibacterial activity against Escherichia coli O157:H7 ATCC 43894 after 24 hrs by microdilution method in presence of 40 mM MgCl2; assay type: functional; details: O157:H7 ATCC 43894, 24 h
[16] = tested on: Listeria monocytogenes; test: Antibacterial activity against Listeria monocytogenes ATCC 19115 at pH 5.5 after 24 hrs by microdilution method; assay type: functional; details: ATCC 19115, 24 h
[17] = tested on: Escherichia coli; test: Antibacterial activity against Escherichia coli O157:H7 ATCC 43894 after 24 hrs by microdilution method in presence of 170 mM NaCl; assay type: functional; details: O157:H7 ATCC 43894, 24 h
[18] = tested on: Staphylococcus aureus; test: Antibacterial activity against methicillin-resistant Staphylococcus aureus isolate 15903 at pH 5.5 after 24 hrs by microdilution method; assay type: functional; details: isolate 15903, 24 h
[19] = tested on: Staphylococcus aureus; test: Antibacterial activity against methicillin-resistant Staphylococcus aureus isolate 15903 at pH 8.5 after 24 hrs by microdilution method; assay type: functional; details: isolate 15903, 24 h
[20] = tested on: Listeria monocytogenes; test: Antibacterial activity against Listeria monocytogenes ATCC 19115 after 24 hrs by microdilution method in presence of 170 mM NaCl; assay type: functional; details: ATCC 19115, 24 h
[21] = tested on: Escherichia coli; test: Ratio of MIC for Escherichia coli O157:H7 ATCC 43894 in presence of 85 mM NaClsto MIC for Escherichia coli O157:H7 ATCC 43894 at pH 8.5 after 24 hrs at 48 degC in presence of 85 mM NaCl; assay type: functional
[22] = tested on: Staphylococcus aureus; test: Antibacterial activity against Staphylococcus aureus ATCC 29213 at pH 7 after 24 hrs by microdilution method; assay type: functional; details: ATCC 29213, 24 h
[23] = tested on: Escherichia coli; test: Antibacterial activity against Escherichia coli O157:H7 ATCC 43894 at pH 7 after 24 hrs by microdilution method; assay type: functional; details: O157:H7 ATCC 43894, 24 h
[24] = tested on: Listeria monocytogenes; test: Antibacterial activity against Listeria monocytogenes ATCC 19115 after 24 hrs at 48 degC by microdilution method; assay type: functional; details: ATCC 19115, 24 h
[25] = tested on: Staphylococcus aureus; test: Antibacterial activity against methicillin-resistant Staphylococcus aureus isolate 15903 at pH 7 after 24 hrs by microdilution method; assay type: functional; details: isolate 15903, 24 h
[26] = tested on: Staphylococcus aureus; test: Antibacterial activity against methicillin-resistant Staphylococcus aureus isolate 15903 after 24 hrs at 48 degC by microdilution method; assay type: functional; details: isolate 15903, 24 h
[27] = tested on: Staphylococcus aureus; test: Antibacterial activity against methicillin-resistant Staphylococcus aureus isolate 15903 after 24 hrs by microdilution method in presence of 260 mM NaCl; assay type: functional; details: isolate 15903, 24 h
[28] = tested on: Staphylococcus aureus; test: Antibacterial activity against methicillin-resistant Staphylococcus aureus isolate 15903 after 24 hrs by microdilution method in presence of 515 mM NaCl; assay type: functional; details: isolate 15903, 24 h
[29] = tested on: Escherichia coli; test: Antibacterial activity against Escherichia coli O157:H7 ATCC 43894 after 24 hrs at 48 degC by microdilution method; assay type: functional; details: O157:H7 ATCC 43894, 24 h

## CCCCCCCCCCCC(=O)N[C@@H](CCCCN)C(=O)NCCCCCCCC(=O)N[C@@H](CCCCN)C(=O)NCCCCCCCC(=O)N[C@@H](CCCCN)C(=O)NCCCCCCCC(=O)N[C@@H](CCCCN)C(=O)NCCCCCCCC(=O)N[C@@H](CCCCN)C(=O)NCCCCCCCC(=O)N[C@@H](CCCCN)C(=O)NCCCCCCCC(=O)N[C@@H](CCCCN)C(=O)NCCCCCCCC(=O)N[C@@H](CCCCN)C(N)=O
[1]
  MIC: 6.3 µM
[2]
  MIC: 0.8 µM
[3]
  Activity: inactive
[4]
  MIC: 3.1 µM
[5]
  MIC: 6.3 µM
[6]
  inhibition (INH): 99%
[7]
  MIC: 12.5 µM
[8]
  MIC: 0.2 µM
[9]
  MIC: 3.1 µM (≈ 6.86 µg/mL)
[10]
  MIC: 1.6 µM (≈ 3.54 µg/mL)
[11]
  MIC: 6.3 µM
[12]
  MIC: 3.1 µM (≈ 6.86 µg/mL)
[13]
  MIC: 3.1 µM
[14]
  MIC: 25 µM (≈ 55.3 µg/mL)
[15]
  MIC: 6.3 µM
[16]
  MIC: 3.1 µM (≈ 6.86 µg/mL)
[17]
  MIC: 3.1 µM
[18]
  MIC: > 50 µM
[19]
  MIC: 1.6 µM (≈ 3.54 µg/mL)
[20]
  MIC: 3.1 µM
[21]
  Ratio: 16
[22]
  MIC: 50 µM (≈ 111 µg/mL)
[23]
  MIC: 3.1 µM (≈ 6.86 µg/mL)
[24]
  MIC: 1.6 µM (≈ 3.54 µg/mL)
[25]
  MIC: 12.5 µM (≈ 27.7 µg/mL)
[26]
  MIC: 3.1 µM (≈ 6.86 µg/mL)
[27]
  MIC: > 50 µM
[28]
  MIC: > 50 µM
[29]
  MIC: 1.6 µM (≈ 3.54 µg/mL)
